Patent publication USRE31463E, “Radiopharmaceutical chelates and method of external imaging” (priority 1980, dated 1983)
Like-named read-outs stand apart in the source and are kept apart here.

Key:
[1] = mouse, in vivo, iv; for injected dose in the blood: 60 min
[2] = Biodistribution in mice after intravenous injection (organ activities by scintillation counter); details: i.v., 60 minutes

Substance | route of elimination / renal clearance [1] | blood clearance [1] | injected dose in the blood [1] | injected dose in the intestines ([1]; 30 min) | other results
gallium-67 chelate of methyliminodiacetic acid [Example 15] | rapid renal clearance | – | – | – | –
technetium-99m chelate of 10-carboxydecyliminodiacetic acid [Example 12] | eliminated through both kidneys and liver | rapid blood clearance | less than 6% | – | persistent activity in organs [1]: persistent activity noted in the liver and lungs
cobalt-57 chelate of N-[N'-(2,6-dimethylphenyl) carbamoylmethyl] iminodiacetic acid [Example 11] | – | – | – | 12% | injected dose in the liver ([1]; 30 min): 28%
technetium-99m chelate of nitrilotriacetic acid [Example 10] | rapidly clear through the kidneys to urine | – | – | – | injected dose found in the liver and intestines [1]: less than 5%; eliminated in urine ([1]; 1 h): 40%
technetium-99m chelate of N-(o-bromobenzyl) iminodiacetic acid [Example 13] | – | rapid blood clearance | less than 5% | 30% | –
gallium-67 chelate of 8-hydroxyquinoline [Example 9] | – | – | – | – | injected dose in the blood [2]: 20%; injected dose in the intestines [2]: 13%; injected dose in the liver [2]: 25%
